# Patent US8183364B2, “Substituted porphyrins” (Duke University, priority 2004, dated 2012)
# Entries after “also recorded” stand apart in the source; their conditions may differ. Marks after values point to notes of the source that are not given here.
# How the values were obtained:
# [1] = data from Batinic-Haberle et al 2002, cited from earlier work; for Rf (compound path/solvent path), metal-free porphyrin (in parenthesis): metal-free ligand of the named Mn porphyrin; for Rf (compound path/solvent path), Mn complex: silica gel TLC, KNO3-saturated H2O/H2O/acetonitrile = 1/1/8
# [2] = Thin-layer chromatography on silica gel (retention factor Rf, lipophilicity); format: physicochemical; settings: Rf; vs methyl porphyrin
# Protocol: Uv/vis spectra of porphyrin ligands and their Mn complexes were taken on a Shimadzu UV-2501-PC spectrophotometer at 25° C. Thin-layer chromatography of ligands and Mn complexes was done using silica gel plates with KNO3satH2O/H2O/acetonitrile=1/1/8.
# Thin-layer chromatography. All new methoxyporphyrins are more lipophilic than MnTE-2-PyP^5+ and MnTDE-2-ImP^5+.
# wild type AB1157 E. coli = assay: Aerobic growth of wild type E. coli (toxicity); format: cell-based; settings: for toxicity to E. coli at 100-fold lower concentration: 0.3 μM; for growth of wild type E. coli: 5AA minimal medium; for toxicity to wild type E. coli / concentration at which toxicity on the parental (wild type) strain is exerted / becomes observable: M9CA medium; for toxicity to wild type E. coli: 30 μM (up to 30 μM); for concentration at which toxicity on the parental (wild type) strain is exerted / becomes observable: range 0.1 to 30 μM
# Protocol: (§1) Aerobic growth of E. coli. Bacterial strains of E. coli used were wild type AB1157 (F-thr-1 leu-1 proA2 his-4 argE3 thr-1 lacY1 galK2 rpsL supE44 ara-14 xyl-15 mtl-1 tsx-33) and SOD-deficient JI132 (same as AB1157 plus (sodA::mudPR13)25 (sodB-kan)1-Δ2. Culture media were prepared as follows. M9 medium: 6 g/L Na2HPO4, 3 g/L KH2PO4, 0.5 g/L NaCl, 1 g/L NH4Cl, 2 mM MgSO4, 0.1 mM CaCl2, adjusted to pH 7.4 with NaOH, and supplemented with 0.2% glucose, 3 mg/L each of D-panthotenic acid and thiamine. M9CA medium contained M9 medium plus 0.2% casamino acids. 5-amino acid (5AA) minimal medium contained M9 medium plus 0.5 mM each of threonine, leucine, histidine, proline and arginine (Faulkner et al, J. Biocl. Chem. 269:23471 (1994)).
# (§2) AB 1157 and 31132 were precultured overnight aerobically in M9CA medium at 37° C. and were then diluted to 3×10^7 cells/mL into 5 mL M9CA medium. JI132 was precultured in the presence of 20 μg/mL chloramphenicol and 500 μg/mL kanamycin. When the cells are transferred from M9CA medium to 5AA minimal medium cultures were first centrifuged and washed twice with the 5AA medium before final dilution in it. The centrifugation was conducted at room temperature to avoid temperature shocks. Cultures without and with Mn porphyrins (0.1 to 30 μM) were grown aerobically in 5 mL volume in test tubes in a thermostated orbital shaker (45° angle, 200 rpm) at 37° C.). Rates of growth were followed turbidimetrically at 700 nm to minimize interference from the absorbance of test compounds.
# [3] = pH 7.8, (22 ± 1) °C; data from Batinic-Haberle et al 2002 (MnTE-2-PyP: Inorg. Chem. 40:726 (2001)); cited from earlier work
# [4] = previously observed (Batinic-Haberle et al 2002), compared with imidazolyl porphyrins; cited from earlier work
# [5] = tested on: SOD-deficient JI132 E. coli; assay: Aerobic growth of SOD-deficient E. coli; format: cell-based
# Protocol: as §1, §2
# [6] = cited from earlier work; for Metal-centered redox potential E1/2: Mn(III)/Mn(II), 0.1 M NaCl, 0.05 M phosphate buffer, pH 7.8, data from Batinic-Haberle et al 2002
# [7] = Oxidative degradation in the presence of ascorbic acid under aerobic conditions; format: physicochemical; settings: pH 7.8 (0.05 M tris buffer)
# Protocol: Under these conditions porphyrins underwent oxidative degradation. As previously observed (Batinic-Haberle et al, J. Chem. Soc., Dalton Trans., pgs. 2689-2696 (2002)), those porphyrins that are of more positive E1/2 are stabilized in +2 oxidation state and are less prone to oxidative damage. Accordingly, 27% and 24% of MnTE-2-PyP^5+ and MnTMOE-2-PyP^5+ undergo degradation within 2 hours, but only 2% of MnTM,MOE-2-ImP^5+ and MnTDMOE-2-ImP^5+ and 3% of MnTDE-2-ImP^5+.
# [8] = Kinetic salt effect on O2.^− dismutation by cytochrome c assay; format: biochemical; settings: 0.05 M phosphate buffer, pH 7.8, 0-0.4 M NaCl
# Protocol: Kinetic salt effect. The dependence of the catalytic rate constant for the O2.^− dismutation upon ionic strength was determined by cytochrome c assay (McCord and Fridovich, J. Biol. Chem. 244:6049 (1969)) in 0.05 M phosphate buffer, pH 7.8 with NaCl ranging from 0 to 0.4 M. In doing this, the effect of ionic strength on the rate of the O2.^−/cytochrome c reaction was corrected for.
# Kinetic salt effect. The effect of the ionic strength (μ) on the catalytic rate constant was assessed using eq which is based on Debye-Huckel relation (Hambright et al, J. Porphyrins Phthalocyanines 7:139-146 (2003)) for the effect of the ionic strength of the solution on the activity coefficient of an ion. log k=log kref+2AzAzBμ^1/2/(1+μ^1/2) The k is the rate constant at any given ionic strength, while kref is the rate constant at μ=0. The A is a collection of physical constants with a value of 0.509 and zA and zB are the charges of the reacting species. The equation predicts a linear plot of log k vs μ^1/2/(1+μ^1/2). Eq assumes a coefficient of 1.0 (βai) for μ^1/2 in the denominator, i.e., the distance of the closest approach, ai to be 3 A and β is a physical constant, […]. It is doubtful whether great significance can be attributed to the ai, thus to the product zAzB (Hambright et al, J. Porphyrins Phthalocyanines 7:139-146 (2003)), especially so in the light of the bulkiness, high charge and solvation shell of the metalloporphyrins. Accounting for the mono- and diprotonated phosphates as the major species at pH 7.8 (pKa=7.2), and the concentration of the NaCl, the ionic strength was calculated using equation μ=½ Σ mizi^2 where mi is the molality and zi the charge of the given ion.
# The slopes of the plots are −6.48 (MnTE-2-PyP^5+), −7.02 (MnTMOE-2-PyP^5+), −7.38 (MnTDMOE-2-ImP^5+), and −4.15 (MnTnBu-2-PyP^5+). As expected (Hambright et al, J. Porphyrins Phthalocyanines 7:139-146 (2003)), when the reactants are ions of opposite charges, the higher the ionic strength of the solution the lower the rate constants, i.e. the slopes are negative. The slopes of the plots indicate clearly the impact of the local dielectric constant on the kcat. The kcat of the most lipophilic compound, MnTnBu-2-PyP^5+ is 40% less sensitive to the changes in ionic strength of the solution than is the kcat of its methoxyethyl analogue, MnTMOE-2-PyP^5+.
# [9] = pH 7.8; cited from earlier work
Molecule,"Rf (compound path/solvent path), metal-free porphyrin (in parenthesis) [1]","Rf (compound path/solvent path), Mn complex [1]",toxicity to E. coli at 100-fold lower concentration (wild type AB1157 E. coli),growth of wild type E. coli (wild type AB1157 E. coli; 3 μM),growth of wild type E. coli (wild type AB1157 E. coli; up to 25 μM),concentration at which toxicity on the parental (wild type) strain is exerted / becomes observable (wild type AB1157 E. coli) [nM],log kcat for O2^− dismutation [3],stability towards oxidative degradation [4],Metal-centered redox potential E1/2 [6],"aerobic growth of SOD-deficient E. coli ([5]; 5AA minimal medium, 25 μM)",also measured
CCCCCCCC[n+]1ccccc1-c1c2nc(c(-c3cccc[n+]3CCCCCCCC)c3ccc([n-]3)c(-c3cccc[n+]3CCCCCCCC)c3nc(c(-c4cccc[n+]4CCCCCCCC)c4ccc1[n-]4)C=C3)C=C2.[Mn+3] [MnTnOct-2-PyP^5+],0.86,0.08,mostly eliminated,completely inhibited growth,toxic,300,7.71,same level of stability,+367 mV vs NHE,–,"lipophilicity higher than methyl porphyrin [2]: ~10 fold; toxicity to wild type E. coli (wild type AB1157 E. coli; listed as n-octyl): prevented wild type E. coli to grow; also recorded: prevent wild type E. coli from growing; toxicity of metal-free vs Mn(III) complex (wild type AB1157 E. coli; separate experiment): equally toxic; protection of SOD-deficient E. coli at 0.3 μM compared with 10 μM methyl, ethyl (and MnTDMOE-2-ImP) porphyrins ([5]; M9CA medium, listed as n-octyl): equally protective; also recorded: the same level of protection; concentration at which the compound facilitates growth of SOD-deficient strain (utility) ([5]; M9CA medium, range 0.1 to 30 μM): ≤ 0.3 µM; protection of SOD-deficient E. coli higher than methyl porphyrin ([5]; vs methyl porphyrin): 30 fold"
CC[n+]1ccccc1-c1c2nc(c(-c3cccc[n+]3CC)c3ccc([n-]3)c(-c3cccc[n+]3CC)c3nc(c(-c4cccc[n+]4CC)c4ccc1[n-]4)C=C3)C=C2.[Mn+3] [MnTE-2-PyP^5+],0.21,0.13,–,–,–,–,7.73^e,–,+228 mV vs NHE,most effective,"degradation within 2 hours [7]: 27%; protection of SOD-deficient E. coli ([5]; M9CA medium, 1 μM): low protection; protection of SOD-deficient E. coli ([5]; M9CA medium, 30 μM): either much higher or near full protection; facilitation of aerobic growth of SOD-deficient E. coli, dependence on concentration ([5]; M9CA medium, 1-30 μM): concentration-dependent manner; slope of log kcat vs μ^1/2/(1+μ^1/2) [8]: −6.48"
"Cu,Zn-SOD: superoxide dismutase enzyme",–,–,–,–,–,–,–,–,–,–,equal rate constants of reduction and oxidation of O2.^− [9]: 2e+09 M⁻¹ s⁻¹; E1/2 ([6]; literature value for the enzyme): ~+300 mV vs NHE
CCCCCC[n+]1ccccc1-c1c2nc(c(-c3cccc[n+]3CCCCCC)c3ccc([n-]3)c(-c3cccc[n+]3CCCCCC)c3nc(c(-c4cccc[n+]4CCCCCC)c4ccc1[n-]4)C=C3)C=C2.[Mn+3] [MnTnHex-2-PyP^5+],0.63,0.57,mostly eliminated,slowed the growth,toxic,3000,7.48,same level of stability,+314 mV vs NHE,failed to do so,"toxicity to wild type E. coli (wild type AB1157 E. coli; listed as n-hexyl): prevented wild type E. coli to grow; also recorded: prevent wild type E. coli from growing; aerobic growth of SOD-deficient E. coli ([5]; 5AA minimal medium, 3 μM): most effective; protection of SOD-deficient E. coli at 0.3 μM compared with 10 μM methyl, ethyl (and MnTDMOE-2-ImP) porphyrins ([5]; M9CA medium, listed as n-hexyl): equally protective; also recorded: the same level of protection; aerobic growth of SOD-deficient E. coli ([5]; M9CA medium, 1 and 3 μM): most effective; aerobic growth of SOD-deficient E. coli ([5]; M9CA medium, 10 and 30 μM): progressively less effective"
